For 40 compounds, IC50 results are on record in patent US20170326125A1, “MULTISUBSTITUTED AROMATIC COMPOUNDS AS INHIBITORS OF THROMBIN” (VERSEON CORPORATION, priority 2016, published 2017).

The structures appear in SMILES notation.

The test has as its target T1, Human thrombin (Homo sapiens, UniProt P00734).
T1 construct: purchased Haematologic Technologies Inc
The test is described as follows: Inhibition of the protease activity of thrombin (chromogenic substrate S-2238). Type of test: biochemical. The settings on record: inhibition of the protease activity of thrombin.
`O=C(c1ccoc1)n1nc(-c2ccncc2)nc1NCc1ccc(F)cc1` [Cmpd 214, N-[(4-fluorophenyl)methyl]-1-[(furan-3-yl)carbonyl]-3-(pyridin-4-yl)-1H-1,2,4-triazol-5-amine]: the IC50 (usually the concentration that gives 50% inhibition) is under 100 nM.
`O=C(N1CCCCC1)n1nc(-c2cccnc2)nc1NCc1ccc(F)cc1` [Cmpd 215, N-[(4-fluorophenyl)methyl]-1-[(piperidin-1-yl)carbonyl]-3-(pyridin-3-yl)-1H-1,2,4-triazol-5-amine] had an IC50 of over 1000 nM.
The compound `CCCn1nc(-c2ccccn2)nc1NCc1ccc(F)cc1` [Cmpd 216, N-[(4-fluorophenyl)methyl]-1-propyl-3-(pyridin-2-yl)-1H-1,2,4-triazol-5-amine] displayed an IC50 of over 1000 nM.
`CCCn1nc(NCc2ccc(F)cc2)nc1-c1ccccn1` [Cmpd 217, N-[(4-fluorophenyl)methyl]-1-propyl-5-(pyridin-2-yl)-1H-1,2,4-triazol-3-amine]: the IC50 was over 1000 nM.
The compound `Cc1c(-c2ccccc2)n[nH]c1N(Cc1ccc(F)cc1)C(=O)C(C)(C)C` [Cmpd 218, N-[(4-fluorophenyl)methyl]-2,2-dimethyl-N-(4-methyl-3-phenyl-1H-pyrazol-5-yl)propanamide] had an IC50 of over 1000 nM.
Compound `O=C(c1ccsc1)n1nc(-c2ccccn2)nc1NCc1ccc(F)cc1` [Cmpd 219, N-[(4-fluorophenyl)methyl]-3-(pyridin-2-yl)-1-[(thiophen-3-yl)carbonyl]-1H-1,2,4-triazol-5-amine] came in with an IC50 of under 100 nM.
Compound `O=C(c1ccsc1)n1nc(-c2cccnc2)nc1NCc1ccc(F)cc1` [Cmpd 220, N-[(4-fluorophenyl)methyl]-3-(pyridin-3-yl)-1-[(thiophen-3-yl)carbonyl]-1H-1,2,4-triazol-5-amine] displayed an IC50 of under 100 nM.
Take `O=C(c1cccs1)n1nc(-c2ccncc2)nc1NCc1ccc(F)cc1` [Cmpd 221, N-[(4-fluorophenyl)methyl]-3-(pyridin-4-yl)-1-[(thiophen-2-yl)carbonyl]-1H-1,2,4-triazol-5-amine]: the IC50 was in the range of 100 to 1000 nM.
Consider `O=C(c1ccsc1)n1nc(-c2ccccc2)nc1NCc1ccc(F)cc1` [Cmpd 222, N-[(4-fluorophenyl)methyl]-3-phenyl-1-[(thiophen-3-yl)carbonyl]-1H-1,2,4-triazol-5-amine], for which the IC50 was under 100 nM.
Under `O=C(c1cn(-c2ccccn2)nc1NCc1ccc(F)cc1)N1CCCCC1` [Cmpd 225, N-[(4-fluorophenyl)methyl]-4-[(piperidin-1-yl)carbonyl]-1-(pyridin-2-yl)-1H-pyrazol-3-amine] stands over 1000 nM; under `COc1ccc(CNc2nc(-c3ccccn3)nn2C(=O)c2cccs2)cc1` [Cmpd 226, N-[(4-methoxyphenyl)methyl]-3-(pyridin-2-yl)-1-[(thiophen-2-yl)carbonyl]-1H-1,2,4-triazol-5-amine], over 1000 nM; under `COc1ccc(CNc2nc(-c3ccccn3)nn2C(=O)c2ccsc2)cc1` [Cmpd 227, N-[(4-methoxyphenyl)methyl]-3-(pyridin-2-yl)-1-[(thiophen-3-yl)carbonyl]-1H-1,2,4-triazol-5-amine], 100 to 1000 nM.
The compound `COc1ccc(CNc2nc(-c3cccnc3)nn2C(=O)c2ccsc2)cc1` [Cmpd 228, N-[(4-methoxyphenyl)methyl]-3-(pyridin-3-yl)-1-[(thiophen-3-yl)carbonyl]-1H-1,2,4-triazol-5-amine] gave an IC50 of over 1000 nM.
For the compound `COc1ccc(CNc2nc(-c3ccncc3)nn2C(=O)c2cccs2)cc1` [Cmpd 229, N-[(4-methoxyphenyl)methyl]-3-(pyridin-4-yl)-1-[(thiophen-2-yl)carbonyl]-1H-1,2,4-triazol-5-amine], the IC50 is over 1000 nM.
`COc1ccc(CNc2nc(-c3ccncc3)nn2C(=O)c2ccsc2)cc1` [Cmpd 230, N-[(4-methoxyphenyl)methyl]-3-(pyridin-4-yl)-1-[(thiophen-3-yl)carbonyl]-1H-1,2,4-triazol-5-amine] displayed an IC50 of 100 to 1000 nM.
The result for `O=C(c1cccc2c1OC(F)(F)O2)n1nc(-c2ccccn2)nc1NCc1ccccc1` [Cmpd 231, N-benzyl-1-[(2,2-difluoro-2H-1,3-benzodioxol-4-yl)carbonyl]-3-(pyridin-2-yl)-1H-1,2,4-triazol-5-amine] reads over 1000 nM.
`O=C(c1cccc2c1OCCO2)n1nc(-c2ccccn2)nc1NCc1ccccc1` [Cmpd 232, N-benzyl-1-[(2,3-dihydro-1,4-benzodioxin-5-yl)carbonyl]-3-(pyridin-2-yl)-1H-1,2,4-triazol-5-amine] came in with an IC50 of under 100 nM.
`COc1cccc(C(=O)n2nc(-c3ccccn3)nc2NCc2ccccc2)c1OC` [Cmpd 233, N-benzyl-1-[(2,3-dimethoxyphenyl)carbonyl]-3-(pyridin-2-yl)-1H-1,2,4-triazol-5-amine]: the IC50 is under 100 nM.
In turn, `COc1ccc(C(=O)n2nc(-c3ccccc3F)cc2NCc2ccccc2)c(OC)c1` [Cmpd 234, N-benzyl-1-[(2,4-dimethoxyphenyl)carbonyl]-3-(2-fluorophenyl)-1H-pyrazol-5-amine] yielded an IC50 of over 1000 nM.
Turning to `COc1ccc(C(=O)n2nc(-c3ccccn3)nc2NCc2ccccc2)c(OC)c1` [Cmpd 235, N-benzyl-1-[(2,4-dimethoxyphenyl)carbonyl]-3-(pyridin-2-yl)-1H-1,2,4-triazol-5-amine], the IC50 is under 100 nM.
`COc1ccc(C(=O)n2nc(-c3ccccn3)cc2NCc2ccccc2)c(OC)c1` [Cmpd 236, N-benzyl-1-[(2,4-dimethoxyphenyl)carbonyl]-3-(pyridin-2-yl)-1H-pyrazol-5-amine] had an IC50 of 100 to 1000 nM.
The result for `Cc1ccc(C(=O)n2nc(-c3ccccn3)nc2NCc2ccccc2)c(C)c1` [Cmpd 237, N-benzyl-1-[(2,4-dimethylphenyl)carbonyl]-3-(pyridin-2-yl)-1H-1,2,4-triazol-5-amine] reads 100 to 1000 nM; that for `O=C(c1c(Cl)cccc1Cl)n1nc(-c2ccccn2)nc1NCc1ccccc1` [Cmpd 238, N-benzyl-1-[(2,6-dichlorophenyl)carbonyl]-3-(pyridin-2-yl)-1H-1,2,4-triazol-5-amine], over 1000 nM.
Take `O=C(c1c(F)cccc1F)n1nc(-c2ccccn2)nc1NCc1ccccc1` [Cmpd 239, N-benzyl-1-[(2,6-difluorophenyl)carbonyl]-3-(pyridin-2-yl)-1H-1,2,4-triazol-5-amine]: the IC50 was 100 to 1000 nM.
Take `O=C(c1ccccc1Br)n1nc(-c2ccccn2)nc1NCc1ccccc1` [Cmpd 240, N-benzyl-1-[(2-bromophenyl)carbonyl]-3-(pyridin-2-yl)-1H-1,2,4-triazol-5-amine]: the IC50 is under 100 nM.
As for `O=C(c1ccccc1Br)n1nc(-c2ccccn2)cc1NCc1ccccc1` [Cmpd 241, N-benzyl-1-[(2-bromophenyl)carbonyl]-3-(pyridin-2-yl)-1H-pyrazol-5-amine], the IC50 was 100 to 1000 nM.
`O=C(c1ccccc1Cl)n1nc(-c2ccccc2F)cc1NCc1ccccc1` [Cmpd 242, N-benzyl-1-[(2-chlorophenyl)carbonyl]-3-(2-fluorophenyl)-1H-pyrazol-5-amine] yielded an IC50 of 100 to 1000 nM.
Under `O=C(c1ccccc1Cl)n1nc(-c2ccccn2)cc1NCc1ccccc1` [Cmpd 244, N-benzyl-1-[(2-chlorophenyl)carbonyl]-3-(pyridin-2-yl)-1H-pyrazol-5-amine] stands 100 to 1000 nM; under `O=C(c1ccccc1Cl)n1nc(-c2ccncc2)nc1NCc1ccccc1` [Cmpd 245, N-benzyl-1-[(2-chlorophenyl)carbonyl]-3-(pyridin-4-yl)-1H-1,2,4-triazol-5-amine], under 100 nM; under `CCc1ccccc1C(=O)n1nc(-c2ccccn2)nc1NCc1ccccc1` [Cmpd 246, N-benzyl-1-[(2-ethylphenyl)carbonyl]-3-(pyridin-2-yl)-1H-1,2,4-triazol-5-amine], 100 to 1000 nM.
Compound `CCc1ccccc1C(=O)n1nc(-c2ccccn2)cc1NCc1ccccc1` [Cmpd 247, N-benzyl-1-[(2-ethylphenyl)carbonyl]-3-(pyridin-2-yl)-1H-pyrazol-5-amine] registered an IC50 of over 1000 nM.
For `COc1ccc(C(=O)n2nc(-c3ccccn3)nc2NCc2ccccc2)c(F)c1` [Cmpd 248, N-benzyl-1-[(2-fluoro-4-methoxyphenyl)carbonyl]-3-(pyridin-2-yl)-1H-1,2,4-triazol-5-amine], the IC50 was under 100 nM.
In turn, `Cc1ccc(C(=O)n2nc(-c3ccccn3)nc2NCc2ccccc2)c(F)c1` [Cmpd 249, N-benzyl-1-[(2-fluoro-4-methylphenyl)carbonyl]-3-(pyridin-2-yl)-1H-1,2,4-triazol-5-amine] showed an IC50 of under 100 nM.
As for `O=C(c1ccccc1F)n1nc(-c2ccccn2)cc1NCc1ccccc1` [Cmpd 251, N-benzyl-1-[(2-fluorophenyl)carbonyl]-3-(pyridin-2-yl)-1H-pyrazol-5-amine], the IC50 is under 100 nM.
`COc1cc(C)ccc1C(=O)n1nc(-c2ccccn2)nc1NCc1ccccc1` [Cmpd 253, N-benzyl-1-[(2-methoxy-4-methylphenyl)carbonyl]-3-(pyridin-2-yl)-1H-1,2,4-triazol-5-amine] had an IC50 of under 100 nM.
`COc1ccccc1C(=O)n1nc(-c2cccnn2)nc1NCc1ccccc1` [Cmpd 254, N-benzyl-1-[(2-methoxyphenyl)carbonyl]-3-(pyridazin-3-yl)-1H-1,2,4-triazol-5-amine] yielded an IC50 of under 100 nM.
With `COc1ccccc1C(=O)n1nc(-c2ccccn2)cc1NCc1ccccc1` [Cmpd 256, N-benzyl-1-[(2-methoxyphenyl)carbonyl]-3-(pyridin-2-yl)-1H-pyrazol-5-amine], the IC50 was 100 to 1000 nM.
Under `COc1ccccc1C(=O)n1nc(-c2ccncc2)nc1NCc1ccccc1` [Cmpd 257, N-benzyl-1-[(2-methoxyphenyl)carbonyl]-3-(pyridin-4-yl)-1H-1,2,4-triazol-5-amine] stands under 100 nM; under `COc1ccccc1C(=O)n1nc(-c2cccs2)nc1NCc1ccccc1` [Cmpd 258, N-benzyl-1-[(2-methoxyphenyl)carbonyl]-3-(thiophen-2-yl)-1H-1,2,4-triazol-5-amine], under 100 nM.
`Cc1ccccc1C(=O)n1nc(-c2ccccn2)nc1NCc1ccccc1` [Cmpd 259, N-benzyl-1-[(2-methylphenyl)carbonyl]-3-(pyridin-2-yl)-1H-1,2,4-triazol-5-amine] came in with an IC50 of under 100 nM.
